Data taken from patent publication US20240342292A1, “Compounds for the Degradation of EGFR Kinase” (BeiGene Switzerland GmbH, priority 2021, published 2024).

Key:
[1] = tested on: Del19/T790M/C797S EGFR; assay: EGFR degradation HTRF assay in H1975-clone #28 (DTC) cells; assay type: cell-based; conditions: H1975 # 28 DTC (Del19/T790M/C797S), 16h treatment; for DC50: HTRF; for Dmax (%): maximum percentage of degradation
In short: (§1)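 H1975 clones with endogenous EGFR knocked out and lentivirally expressed mutant EGFR treated 16 h at 37 °C with compounds, 8 doses from 10 uM, 5-fold dilutions, 0.2% DMSO. Lysates read by HTRF (665/620 nm) overnight; DC50 from four-parameter fit.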

[2] = target: T1, L858R/T790M/C797S EGFR (Homo sapiens, UniProt P00533, C797S/L858R/T790M); assay: EGFR degradation HTRF assay in H1975-clone #25 (LTC) cells; assay type: cell-based; conditions: 16h treatment; for DC50: H1975 # 25-LTC (L858R/T790M/C797S), HTRF; for Dmax: NCI-H1975, H1975 # 25-LTC (L858R/T790M/C797S), maximum percentage of degradation
T1 construct: expressed in transfected cells; host or cells: H1975 clone #25 (lentiviral over-expression, endogenous EGFR knocked out by sgRNA)
In short: as §1

T1 sequence (P00533 25-1210 T790M/C797S/L858R): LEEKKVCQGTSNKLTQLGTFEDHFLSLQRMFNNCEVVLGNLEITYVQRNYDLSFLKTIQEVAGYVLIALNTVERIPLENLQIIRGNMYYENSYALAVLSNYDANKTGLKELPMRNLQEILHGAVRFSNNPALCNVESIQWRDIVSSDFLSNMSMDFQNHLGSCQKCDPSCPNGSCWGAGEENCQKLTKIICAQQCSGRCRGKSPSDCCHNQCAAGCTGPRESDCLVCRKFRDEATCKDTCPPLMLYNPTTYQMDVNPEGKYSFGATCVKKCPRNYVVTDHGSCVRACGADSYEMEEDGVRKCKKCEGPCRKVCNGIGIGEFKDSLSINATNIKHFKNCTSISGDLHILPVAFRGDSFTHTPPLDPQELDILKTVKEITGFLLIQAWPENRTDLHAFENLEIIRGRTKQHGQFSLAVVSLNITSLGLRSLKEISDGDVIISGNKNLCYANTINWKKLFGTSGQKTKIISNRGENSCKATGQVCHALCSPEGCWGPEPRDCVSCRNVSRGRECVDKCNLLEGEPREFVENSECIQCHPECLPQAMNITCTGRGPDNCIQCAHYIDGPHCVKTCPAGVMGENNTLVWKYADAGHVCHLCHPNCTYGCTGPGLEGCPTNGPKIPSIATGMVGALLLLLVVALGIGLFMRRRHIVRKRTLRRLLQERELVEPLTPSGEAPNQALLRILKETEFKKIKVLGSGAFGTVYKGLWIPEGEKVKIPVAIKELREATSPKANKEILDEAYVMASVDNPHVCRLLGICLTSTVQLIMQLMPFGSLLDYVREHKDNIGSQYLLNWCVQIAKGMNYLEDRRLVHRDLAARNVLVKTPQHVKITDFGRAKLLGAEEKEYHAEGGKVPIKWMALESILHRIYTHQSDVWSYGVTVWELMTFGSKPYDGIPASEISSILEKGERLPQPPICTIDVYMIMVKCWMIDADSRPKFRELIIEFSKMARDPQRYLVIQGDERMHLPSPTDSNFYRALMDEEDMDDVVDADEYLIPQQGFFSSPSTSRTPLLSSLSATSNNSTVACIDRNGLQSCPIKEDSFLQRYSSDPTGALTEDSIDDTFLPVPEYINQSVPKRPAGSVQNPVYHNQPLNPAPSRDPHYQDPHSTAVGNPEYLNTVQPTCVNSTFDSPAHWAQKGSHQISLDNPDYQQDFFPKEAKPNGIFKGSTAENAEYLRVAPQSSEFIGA

Compound | DC50 [1] | Dmax (%) [1] | DC50 [2] | Dmax [2]
COC[C@@H]1CN(c2cc(F)c([C@H]3CCC(=O)NC3=O)c(F)c2)CCN1C(=O)C1CCN(c2ccc3c(c2)N2C[C@H](C)CCCOc4c(cnn4C)-c4cc(cc(C)n4)C(=O)/N=C/2N3)CC1 [Example 357, (R)-3-(2,6-difluoro-4-((S)-3-(methoxymethyl)-4-(1-((R,E)-1^1,2^6,7-trimethyl-3-oxo-5^2,5^3-dihydro-1^1H,5^1H-11-oxa-4-aza-5(2,1)-benzo[d]imidazola-2(2,4)-pyridina-1(4,5)-pyrazolacycloundecaphane-5^6-yl)piperidine-4-carbonyl)piperazin-1-yl)phenyl)piperidine-2,6-dione] | 0.903 nM | 73.73% | 0.824 nM | 87.6%
Cc1cc2cc(n1)-c1cnn(C)c1OCCC[C@@H](C)CN1/C(=N/C2=O)Nc2ccc(N3CCN(CC4CN(c5cc(F)c([C@H]6CCC(=O)NC6=O)c(F)c5)C4)CC3)cc21 [Example 321, (R)-3-(2,6-difluoro-4-(3-((4-((R,E)-1^1,2^6,7-trimethyl-3-oxo-5^2,5^3-dihydro-1^1H,5^1H-11-oxa-4-aza-5(2,1)-benzo[d]imidazola-2(2,4)-pyridina-1(4,5)-pyrazolacycloundecaphane-5^6-yl)piperazin-1-yl)methyl)azetidin-1-yl)phenyl)piperidine-2,6-dione] | 1.18 nM | 73.52% | 1.17 nM | 88.2%
COC[C@H]1CN(C2CCN(c3cc(F)c([C@H]4CCC(=O)NC4=O)c(F)c3)CC2)CCN1c1ccc2c(c1)N1C[C@H](C)CCCOc3c(cnn3C)-c3cc(cc(C)n3)C(=O)/N=C/1N2 [Example 385, (R)-3-(2,6-difluoro-4-(4-((R)-3-(methoxymethyl)-4-((R,E)-1^1,2^6,7-trimethyl-3-oxo-5^2,5^3-dihydro-1^1H,5^1H-li-oxa-4-aza-5(2,1)-benzo[d]imidazola-2(2,4)-pyridina-1(4,5)-pyrazolacycloundecaphane-5^6-yl)piperazin-1-yl)piperidin-1-yl)phenyl)piperidine-2,6-dione] | 1.58 nM | 63.01% | 2.63 nM | 82.3%
Cc1cc2cc(n1)-c1cnn(C)c1OCCC[C@@H](C)CN1/C(=N/C2=O)Nc2ccc(N3CCC(C(=O)N4CC(Nc5cc(F)c([C@H]6CCC(=O)NC6=O)c(F)c5)C4)CC3)cc21 [Example 404, (R)-3-(2,6-difluoro-4-((1-(1-((R,E)-1^1,2^6,7-trimethyl-3-oxo-5^2,5^3-dihydro-1^1H,5^1H-li-oxa-4-aza-5(2,1)-benzo[d]imidazola-2(2,4)-pyridina-1(4,5)-pyrazolacycloundecaphane-5^4-yl)piperidine-4-carbonyl)azetidin-3-yl)amino)phenyl)piperidine-2,6-dione] | 1.69 nM | 83.57% | 0.94 nM | 88.5%
Cc1cc2cc(n1)-c1cnn(C)c1OCCC[C@@H](C)CN1/C(=N/C2=O)Nc2ccc(N3CCC(N4CCN(c5cc(F)c([C@H]6CCC(=O)NC6=O)c(F)c5)CC4=O)CC3)cc21 [Example 450, (R)-3-(2,6-difluoro-4-(3-oxo-4-(1-((R,E)-1^1,2^6,7-trimethyl-3-oxo-5^2,5^3-dihydro-1^1H,5^1H-11-oxa-4-aza-5(2,1)-benzo[d]imidazola-2(2,4)-pyridina-1(4,5)-pyrazolacycloundecaphane-5^6-yl)piperidin-4-yl)piperazin-1-yl)phenyl)piperidine-2,6-dione] | 0.647 nM | 83.01% | 0.678 nM | 88.7%
Cc1cc2cc(n1)-c1cnn(C)c1OCCC[C@@H](C)CN1/C(=N/C2=O)Nc2ccc(CN3CCN(C(=O)[C@@H]4CCN(c5cc(F)c([C@H]6CCC(=O)NC6=O)c(F)c5)C4)CC34COC4)cc21 [Example 199, (R)-3-(2,6-difluoro-4-((R)-3-(5-(((R,E)-1^1,2^6,7-trimethyl-3-oxo-5^2,5^3-dihydro-1^1H,5^1H-11-oxa-4-aza-5(2,1)-benzo[d]imidazola-2(2,4)-pyridina-1(4,5)-pyrazolacycloundecaphane-5^6-yl)methyl)-2-oxa-5,8-diazaspiro[3.5]nonane-8-carbonyl)pyrrolidin-1-yl)phenyl)piperidine-2,6-dione] | 0.752 nM | 73.3% | 0.638 nM | 76.5%
Cc1cc2cc(n1)-c1cnn(C)c1OCCC[C@@H](C)CN1/C(=N/C2=O)Nc2ccc(C(=O)N(C)C3CCC(N(C)CCc4cc(F)c([C@H]5CCC(=O)NC5=O)c(F)c4)CC3)cc21 (stereo partly drawn) [Example 278, (R,E)-N-(4-((4-((R)-2,6-dioxopiperidin-3-yl)-3,5-difluorophenethyl)(methyl)amino)cyclohexyl)-N,1^1,2^6,7-tetramethyl-3-oxo-5^2,5^3-dihydro-1^1H,5^1H-11-oxa-4-aza-5(2,1)-benzo[d]imidazola-2(2,4)-pyridina-1(4,5)-pyrazolacycloundecaphane-5^6-carboxamide] | 0.567 nM | 52.21% | 0.804 nM | 74.2%
Cc1cc2cc(n1)-c1cnn(C)c1OCCC[C@@H](C)CN1/C(=N/C2=O)Nc2ccc(N3CCC(C(=O)N4CCC(Oc5cc(F)c([C@H]6CCC(=O)NC6=O)c(F)c5)CC4)CC3)cc21 [Example 364, (R)-3-(2,6-difluoro-4-((1-(1-((R,E)-1^1,2^6,7-trimethyl-3-oxo-5^2,53-dihydro-1^1H,5^1H-11-oxa-4-aza-5(2,1)-benzo[d]imidazola-2(2,4)-pyridina-1(4,5)-pyrazolacycloundecaphane-5^6-yl)piperidine-4-carbonyl)piperidin-4-yl)oxy)phenyl)piperidine-2,6-dione] | 0.633 nM | 75.27% | 1.12 nM | 86.4%
Cc1cc2cc(n1)-c1cnn(C)c1OCCC1CC1CN1/C(=N/C2=O)Nc2ccc(C(=O)N(C)C3CCN(CCc4cc(F)c([C@H]5CCC(=O)NC5=O)c(F)c4)CC3)cc21 (stereo partly drawn) [Example 234, (E)-N-(1-(4-((R)-2,6-dioxopiperidin-3-yl)-3,5-difluorophenethyl)piperidin-4-yl)-N,1^1,2^6-trimethyl-3-oxo-5^2,5^3-dihydro-1^1H,5^1H-10-oxa-4-aza-5(2,1)-benzo[d]imidazola-2(2,4)-pyridina-1(4,5)-pyrazola-7(1,2)-cyclopropanacyclodecaphane-5^6-carboxamide] | 0.637 nM | 85.75% | 1.09 nM | 90.1%
Cc1cc2cc(n1)-c1cnn(C)c1OCCC[C@@H](C)CN1/C(=N/C2=O)Nc2ccc(C(=O)N(C)C3CCN(CC4CCN(c5cc(F)c([C@H]6CCC(=O)NC6=O)c(F)c5)CC4)CC3)cc21 [Example 287, (R,E)-N-(1-((1-(4-((R)-2,6-dioxopiperidin-3-yl)-3,5-difluorophenyl)piperidin-4-yl)methyl)piperidin-4-yl)-N,1^1,2^6,7-tetramethyl-3-oxo-5^2,5^3-dihydro-1^1H,5^1H-11-oxa-4-aza-5(2,1)-benzo[d]imidazola-2(2.4)-pyridina-1(4,5)-pyrazolacycloundecaphane-5^6-carboxamide] | 0.918 nM | 88.53% | 0.581 nM | 93.5%
Cc1cc2cc(n1)-c1cnn(C)c1OCC[C@H]1C[C@@H]1CN1/C(=N/C2=O)Nc2ccc(NC3CN(C4CCN(c5cc(F)c([C@H]6CCC(=O)NC6=O)c(F)c5)CC4)C3)cc21 [Example 455, (R)-3-(4-(4-(3-(((71S,72R,E)-1^1,2^6-dimethyl-3-oxo-5^2,5^3-dihydro-1^1H,5^1H-10-oxa-4-aza-5(2,1)-benzo[d]imidazola-2(2,4)-pyridina-1(4,5)-pyrazola-7(1,2)-cyclopropanacyclodecaphane-5^6-yl)amino)azetidin-1-yl)piperidin-1-yl)-2,6-difluorophenyl)piperidine-2,6-dione] | 0.912 nM | 85.22% | 0.537 nM | 90.8%
Cc1cc2cc(n1)-c1cnn(C)c1OCCC[C@@H](C)CN1/C(=N/C2=O)Nc2ccc(N3CCC(N4CCN(c5cc(F)c([C@H]6CCC(=O)NC6=O)c(F)c5)CC4)CC3)cc21 [Example 387, (R)-3-(2,6-difluoro-4-(4-(1-((R,E)-1^1,2^6,7-trimethyl-3-oxo-5^2,53-dihydro-1^1H,5^1H-11-oxa-4-aza-5(2,1)-benzo[d]imidazola-2(2,4)-pyridina-1(4,5)-pyrazolacycloundecaphane-5^6-yl)piperidin-4-yl)piperazin-1-yl)phenyl)piperidine-2,6-dione] | 0.782 nM | 76.00% | 1.46 nM | 87.2%
Cc1cc2cc(n1)-c1cnn(C)c1OCCC[C@@H](C)CN1/C(=N/C2=O)Nc2ccc(N3CCN(C4CCN(c5cc(F)c([C@H]6CCC(=O)NC6=O)c(F)c5)CC4)[C@@H](CO)C3)cc21 [Example 421, (R)-3-(2,6-difluoro-4-(4-((R)-2-(hydroxymethyl)-4-((R,E)-1^1,2^6,7-trimethyl-3-oxo-5^2,5^3-dihydro-1^1H,5^1H-11-oxa-4-aza-5(2,1)-benzo[d]imidazola-2(2,4)-pyridina-1(4,5)-pyrazolacycloundecaphane-5^6-yl)piperazin-1-yl)piperidin-1-yl)phenyl)piperidine-2,6-dione] | 0.639 nM | 84.08% | 0.604 nM | 87.5%
